Measurements as given in the NIST ThermoML archive (doi:10.1021/je200111a).
± gives the expanded uncertainty stated by the source.

Columns and labels:
[1] = Liquid; for mass density: 298.15 K, 101.33 kPa; for vapor or sublimation pressure: Ebulliometric method (Recirculating still)
[2] = refractive index (Na D-line) (dimensionless); conditions: 298.15 K; 101.33 kPa; Liquid; Standard Abbe refractometry

Row | mass density [1] | vapor or sublimation pressure ([1]; 358.35 K) | vapor or sublimation pressure ([1]; 411.05 K) | refractive index [2] | vapor or sublimation pressure ([1]; 366.55 K) | vapor or sublimation pressure ([1]; 366.65 K) | vapor or sublimation pressure ([1]; 427.62 K) | vapor or sublimation pressure ([1]; 427.65 K) | vapor or sublimation pressure ([1]; 353.75 K) | vapor or sublimation pressure ([1]; 403.75 K) | Compound
1 | 811.2 ± 0.4 kg/m3 | 13 ± 0.17 kPa | 101.3 ± 1.8 kPa | 1.4077 ± 0.0007 |  |  |  |  |  |  | CCCCCO [pentan-1-ol]
2 | 1028.6 ± 0.2 kg/m3 |  |  | 1.41057 ± 0.00072 | 13 ± 0.2 kPa | 13 ± 0.2 kPa | 101.3 ± 2 kPa | 101.3 ± 2 kPa |  |  | CCOC(=O)[C@H](C)O [(S)-(-)-ethyl lactate]
3 | 807.6 ± 0.4 kg/m3 |  |  | 1.4051 ± 0.0007 |  |  |  |  | 13 ± 0.16 kPa | 101.3 ± 1.7 kPa | CC(C)CCO [3-methylbutan-1-ol]
